For test [1], the system named is fasting homocysteine levels in healthy young women. The conditions noted are these: healthy young women with normal homocysteine; folic acid 400 micrograms/day, vitamin B6 2 mg/day; daily for four weeks; cited from earlier work.
Test [2] concerns patients with venous ulcers. The conditions noted are these: cited from earlier work.
For test [3], the system named is systolic blood pressure in untreated hypertensive patients. The note with it: interval in brackets, cited from earlier work.
The test system of test [4] is homocysteine levels in untreated hypertensive patients. The conditions noted are these: cited from earlier work; for homocysteine levels increased by: end of 4.5-year treatment.
Test [5] relates to homocysteine level. Briefly: Observation test 1: homocysteine level determination. The class given is in vivo, human. The conditions noted are these: median (25; 75 percentile); for homocysteine, Visit 2: after 12 weeks of therapy; for homocysteine, Visit 1: baseline before treatment, CEAP 2-3. Here is the method: The analysis was based on consecutive patient data from outpatients who met the inclusion criteria. All patients had venous circulatory disorders, with severity of disease corresponding to CEAP stage 2 and CEAP stage 3. The male:female ratio in the population analysed was 1:2 In total, data from four different patient groups were examined: • Group 1: patients taking 1000 mg of diosmin daily (n=45)· • 30 subjects had homocysteine levels below the risk threshold (<12.5 μmol/L normal homocysteinemia group)· • 15 subjects had homocysteine levels above the risk threshold (>12.5 μmol/L hyperhomocysteinemia group) • Group 2: patients taking a daily combination of 1000 mg diosmin+6 mg folic acid+20 mg vitamin B6 (diosmin plus) (45 patients)· • 30 subjects had homocysteine levels below the risk threshold (<12.5 μmol/L normal homocysteinemia group)· • 15 subjects had homocysteine levels above the risk threshold (>12.5 μmol/L hyperhomocysteinemia group) The observation period was 12 weeks, during which time patients took the prescribed medication continuously. Before starting the medication treatment, a physical examination (to determine the CEAP stage of chronic venous insufficiency) and homocysteine level determination were performed and a CIVIQ-20 questionnaire was filled out. At the end of the 12-week follow-up period, the tests were repeated. For continuous variables, normality testing was performed. Variables with a normal distribution (age, CIVIQ score at visits 1 and 2) were characterised by the mean+SD, while variables with a non-normal distribution (homocysteine level at visits 1 and 2) were characterised by the median (25; 75 percentile). Differences in the values of variables with normal distribution by subgroup was tested by t test, and difference in the values of variables with non-normal distribution by subgroup was tested by chi-squared test.

Test [6] deals with homocysteine level. Briefly: Observation test 2: homocysteine level determination. The class given is in vivo, human. The note with it: median (25; 75 percentile); for homocysteine, Visit 2: after 12 weeks of therapy; for homocysteine, Visit 1: baseline before treatment, CEAP 6. The method, then:
Data from a total of 60 people were analysed retrospectively. Patients attending outpatient care consecutively who met the inclusion criteria were included in the retrospective analysis. Patients all had venous circulatory disorders with a severity of disease corresponding to CEAP stage 6. The male:female ratio in the analysed population was 1:2. The data of a total of four different patient groups were analysed as follows. • Group 1: patients taking 1000 mg of diosmin daily (n=30) • 15 patients had homocysteine levels below the risk threshold (<12.5 μmol/L, normal homocysteinemia group). • 15 patients had homocysteine levels above the risk threshold (>12.5 μmol/L hyperhomocysteinemia group) • Group 2: patients taking a daily combination of 1000 mg diosmin+3 mg folic acid+20 mg vitamin B6 (diosmin plus) (30 patients) • 15 patients had homocysteine levels below the risk threshold (<12.5 μmol/L normal homocysteinemia group). • 15 patients had homocysteine levels above the risk threshold (>12.5 μmol/L hyperhomocysteinemia group) • Group 3: patients taking a combination of 3 mg folic acid+20 mg vitamin B6 (diosmin plus) daily (30 patients) • 15 patients had homocysteine levels below the risk threshold (<12.5 μmol/L normal homocysteinemia group). • 15 patients had homocysteine levels above the risk threshold (>12.5 μmol/L hyperhomocysteinemia group) The observation period was 12 weeks, during which time patients took the prescribed medication continuously. Before starting the medication treatment, a physical examination (to determine the CEAP stage of chronic venous insufficiency) and homocysteine level determination were performed. The area of the leg ulcer developed based on the venous circulatory disorder was also determined. At the end of the 12-week observation period, the tests were repeated. For continuous variables, normality tests were performed. Variables with a normal distribution (age) were characterised by the mean+SD, variables with a non-normal distribution (homocysteine level at visits 1 and 2, leg ulcer area at visits 1 and 2) were characterised by the median (25; 75 percentile). For comparisons between two subgroups, the difference in the values of variables with normal distribution by subgroup was tested by t test, and the difference in the values of variables with non-normal distribution by subgroup was tested by chi-squared test.

For test [7], the system named is patients with venous circulatory disorders, CEAP stage 2 and CEAP stage 3. Kind of test: Observation test 1: CIVIQ-20 quality-of-life score after 12 weeks of therapy. The conditions noted are these: for CIVIQ change (score): Visit 1 score - Visit 2 score (negative = improvement), 12 weeks; for CIVIQ (score), Visit 2: after 12 weeks of therapy; for CIVIQ (score), Visit 2 / CIVIQ (score), Visit 1: mean ± SD; for CIVIQ (score), Visit 1: baseline before treatment. The class given is in vivo, human. Here is the method: The study analysed data from a total of 90 people retrospectively.
The analysis was based on consecutive patient data from outpatients who met the inclusion criteria. All patients had venous circulatory disorders, with severity of disease corresponding to CEAP stage 2 and CEAP stage 3. The male:female ratio in the population analysed was 1:2
In total, data from four different patient groups were examined: • Group 1: patients taking 1000 mg of diosmin daily (n=45)· • 30 subjects had homocysteine levels below the risk threshold (<12.5 μmol/L normal homocysteinemia group)· • 15 subjects had homocysteine levels above the risk threshold (>12.5 μmol/L hyperhomocysteinemia group) • Group 2: patients taking a daily combination of 1000 mg diosmin+6 mg folic acid+20 mg vitamin B6 (diosmin plus) (45 patients)· • 30 subjects had homocysteine levels below the risk threshold (<12.5 μmol/L normal homocysteinemia group)· • 15 subjects had homocysteine levels above the risk threshold (>12.5 μmol/L hyperhomocysteinemia group)
The observation period was 12 weeks, during which time patients took the prescribed medication continuously. Before starting the medication treatment, a physical examination (to determine the CEAP stage of chronic venous insufficiency) and homocysteine level determination were performed and a CIVIQ-20 questionnaire was filled out. At the end of the 12-week follow-up period, the tests were repeated. For continuous variables, normality testing was performed. Variables with a normal distribution (age, CIVIQ score at visits 1 and 2) were characterised by the mean+SD, while variables with a non-normal distribution (homocysteine level at visits 1 and 2) were characterised by the median (25; 75 percentile). Differences in the values of variables with normal distribution by subgroup was tested by t test, and difference in the values of variables with non-normal distribution by subgroup was tested by chi-squared test.
(§1) The factors determining the increase in CIVIQ score were analysed using simple and complex linear regression. In the composite model, age and gender were included as significant regressors. […] The fit of the final composite linear model was characterised using the Ramsey RESET test and the Breusch-Pagan/Cook-Weisberg test. Model fit is indicated by a value of p>0.05. The composite model was also stratified according to baseline homocysteine level (normal vs. low), to investigate the interaction between baseline homocysteine level and the therapy used.

The test system of test [8] is patients with venous circulatory disorders, CEAP stage 6 (leg ulcer). Briefly: Observation test 2: area of leg ulcer after 12 weeks of therapy. The class given is in vivo, human. The conditions noted are these: median (25; 75 percentile); for change in ulcer size: 1st visit - 2nd visit (positive = reduction), 12 weeks; for ulcer size, Visit 2: after 12 weeks of therapy; for ulcer size, Visit 1: baseline before treatment. The method, then:
Data from a total of 60 people were analysed retrospectively. Patients attending outpatient care consecutively who met the inclusion criteria were included in the retrospective analysis. Patients all had venous circulatory disorders with a severity of disease corresponding to CEAP stage 6. The male:female ratio in the analysed population was 1:2. The data of a total of four different patient groups were analysed as follows. • Group 1: patients taking 1000 mg of diosmin daily (n=30) • 15 patients had homocysteine levels below the risk threshold (<12.5 μmol/L, normal homocysteinemia group). • 15 patients had homocysteine levels above the risk threshold (>12.5 μmol/L hyperhomocysteinemia group) • Group 2: patients taking a daily combination of 1000 mg diosmin+3 mg folic acid+20 mg vitamin B6 (diosmin plus) (30 patients) • 15 patients had homocysteine levels below the risk threshold (<12.5 μmol/L normal homocysteinemia group). • 15 patients had homocysteine levels above the risk threshold (>12.5 μmol/L hyperhomocysteinemia group) • Group 3: patients taking a combination of 3 mg folic acid+20 mg vitamin B6 (diosmin plus) daily (30 patients) • 15 patients had homocysteine levels below the risk threshold (<12.5 μmol/L normal homocysteinemia group). • 15 patients had homocysteine levels above the risk threshold (>12.5 μmol/L hyperhomocysteinemia group)
The observation period was 12 weeks, during which time patients took the prescribed medication continuously. Before starting the medication treatment, a physical examination (to determine the CEAP stage of chronic venous insufficiency) and homocysteine level determination were performed. The area of the leg ulcer developed based on the venous circulatory disorder was also determined.
At the end of the 12-week observation period, the tests were repeated. For continuous variables, normality tests were performed. Variables with a normal distribution (age) were characterised by the mean+SD, variables with a non-normal distribution (homocysteine level at visits 1 and 2, leg ulcer area at visits 1 and 2) were characterised by the median (25; 75 percentile). For comparisons between two subgroups, the difference in the values of variables with normal distribution by subgroup was tested by t test, and the difference in the values of variables with non-normal distribution by subgroup was tested by chi-squared test.
as §1, with “effectiveness of the therapy was characterised by the change in the area of the leg ulcer. Factors” for “factors”, “change” for “increase”, “ulcer size” for “CIVIQ score”, “were” for “were included as”

[9] abbreviates: hyperhomocysteine group (>12.5 μmol/L).
[10] abbreviates: normal homocysteine group (<12.5 μmol/L).

The values that follow come from patent publication US20250332185A1, “Use of a New Therapeutic Combination to Treat Chronic Venous Insufficiency” (KÉRI PHARMA HUNGARY KFT., priority 2021, published 2025).

Like-named read-outs stand apart in the source and are kept apart here.

`Nc1nc2ncc(CNc3ccc(C(=O)N[C@@H](CCC(=O)O)C(=O)O)cc3)nc2c(=O)[nH]1` [folic acid]: the “reduction of homocysteine levels” value in test [1] is 11.5%. Further, the “ulcer healing” value in test [2] (chronic venous ulcer disease with hyperhomocysteinemia) is listed as “accelerated ulcer healing”. Besides, the cure rate in test [2] (group A: hyperhomocysteinemia, folic acid 1.2 mg/day for 12 months plus basic treatment, group B basic treatment only 63·33%, P<0.05) is recorded as 78.75%.
Take `CCOC(=O)[C@H](CCc1ccccc1)N[C@@H](C)C(=O)N1CCC[C@H]1C(=O)O` [enalapril]: the figures for the “Reduction in systolic blood pressure” value in test [3] (baseline homocysteine 10-<15 versus reference category <10) and in test [3] (baseline homocysteine ≥15 versus reference category <10) were −0.77 (−1.53; −0.01) mm Hg and −1.70 (−2.68; −0.72) mm Hg, respectively. For the same compound, the “homocysteine levels increased by” value was 1.7 µmol/L in test [4] (baseline homocysteine <10 μmol/L); 1.1 µmol/L in test [4] (baseline homocysteine between 10 and 15 μmol/L). Moreover, the “homocysteine levels decreased by” value in test [4] (baseline homocysteine ≥15 μmol/L, median 4.5 years, 10 mg enalapril, 0.8 mg folic acid daily) is 2.4 µmol/L.
For `Cc1ncc(CO)c(CO)c1O.Cl` [Vitamin B6, vitamin B6], the “reduction of homocysteine levels” value in test [1] is given as “no effect”.
For `COc1ccc(-c2cc(=O)c3c(O)cc(O[C@@H]4O[C@H](CO[C@@H]5O[C@@H](C)[C@H](O)[C@@H](O)[C@H]5O)[C@@H](O)[C@H](O)[C@H]4O)cc3o2)cc1O` [diosmin], the “homocysteine, Visit 2” value with homocysteine level [5] (hyperhomocysteine group) is 11.69 (11.52; 11.91) μmol/L; in the test on homocysteine level [5] (normal homocysteine group) it was 7.39 (7.65; 7.80) μmol/L; in the test with homocysteine level [6] (hyperhomocysteine group), 19.13 (18.75; 19.42) μmol/L; in the test with homocysteine level [6] (normal homocysteine group), 10.89 (10.21; 11.17) μmol/L. Also, the “homocysteine, Visit 1” value in the test on homocysteine level [5] (setting [9]) is 14.74 (13.24; 15.79) μmol/L; in the test with homocysteine level [5] (setting [10]), 8.00 (7.23; 8.83) μmol/L; with homocysteine level [6] (setting [9]) it was 20.73 (20.16; 21.21) μmol/L; with homocysteine level [6] (setting [10]), 11.82 (11.59; 12.24) μmol/L. Also, the “CIVIQ change (score)” value in test [7] (hyperhomocysteine group) is recorded as −14.56 ± 15.86 score; in test [7] (normal homocysteine group), −12.09 ± 1.23 score. The “CIVIQ (score), Visit 2” value is reported as 79.71 ± 10.81 score in test [7] (hyperhomocysteine group) and 78.44 ± 8.75 score in test [7] (normal homocysteine group). Further, the “CIVIQ (score), Visit 1” value in test [7] (hyperhomocysteine group) was 65.14 ± 8.45 score; in test [7] (normal homocysteine group) it was 66.09 ± 9.91 score. The “change in ulcer size” value was 2.61 (2.01; 3.29) cm^2 in test [8] (hyperhomocysteine group) and 1.11 (0.64; 2.26) cm^2 in test [8] (normal homocysteine group). Also, the “ulcer size, Visit 2” value in test [8] (hyperhomocysteine group) was 10.56 (10.28; 10.91) cm^2; in test [8] (normal homocysteine group), 7.09 (6.12; 7.67) cm^2. The “ulcer size, Visit 1” value is given as 13.62 (12.44; 13.85) cm^2 in test [8] (hyperhomocysteine group) and 8.11 (7.07; 8.73) cm^2 in test [8] (normal homocysteine group).
